Test results taken from patent US6995139B2, “Cyclic undecapeptide pro-drugs and uses thereof” (Debiopharm S.A., priority 2001, dated 2006).
Read-outs that look alike come from different tables or passages of the source.

Columns and labels:
[1] = Water-solubility by visual examination in 67 mM Sorensen phosphate buffers; assay type: physicochemical; details: 67 mM Sorensen phosphate buffer, ambient temperature
[2] = assay type: in vitro ADME; details: bovine, serum
[3] = rat, in vivo, iv, 10 mg/kg
[4] = tested on: esterases; assay: Enzymatic stability: hydrolysis in Hepes buffer in the presence of esterases; details: 50 mM Hepes buffer, pH 7.4, 37° C., FIG. 1
Procedure: During the incubation at 37° C., 40 μl aliquots are sampled at appropriate time periods and analyzed by HPLC and ESI-MS.

[5] = in vitro; assay type: in vitro ADME; details: rabbit, cerebrospinal or other body fluid, pH 7
Procedure: This conversion kinetics test was carried out by incubating, at 37° C., 25 μl of a sample of the solution described above, with gentle stirring, with 8 μl of fresh rabbit tear. 2 μl samples were taken at intervals of 1, 2, 3 and 30 minutes, and were then analyzed by HPLC.

[6] = tested on: cornea; assay: Confocal laser scanning opthalmoscope test (subacute ocular toxicity); details: rabbit cornea, 25 μl three times a day for four days; (XV) aqueous solution, Cyclosporin A 1% in olive oil
Procedure: The solutions were sterilized by passing them through 0.22 μm nitrocellulose filters.
This test was carried out on the same type of animal as previously. 25 μl of a solution as described above were instilled onto the cornea of the right eye three times a day for four days, and then once on the fourth day just before observation. After the final installation, the rabbits were sedated by administering ketamine hydrochloride and xylazine. A total of 25 μl of a solution of sodium fluorescein at 0.5% by weight/volume were instilled onto the eye in order to allow selective labeling of the surfaces possibly damaged. The eye was then rinsed for one minute with a saline solution at 37° C.
The opthalmoscope was coupled to an image analysis system in order to be able to reconstitute an image in three dimensions and to allow evaluation of the damaged areas.

[7] = T1/22 (terminal half-life time)

Row | solubility ([1]; pH 5) | solubility ([1]; pH 6, read-out: Water-solubility at pH = 6) | solubility ([1]; pH 7) | solubility ([1]; pH 8, read-out: Water-solubility at pH = 8) | SMILES | half-life [2] | AUC(0-inf) [3] | MRT [3] | clearance [3] | half-life ([3]; T1/21 (initial half-life time)) | half-life [3, 7] | hydrolysis in the presence of esterases (release of Cyclosporin A) [4] | metabolised at 0.05 h, 0.76 % (weight/volume) Cyclosporin A equivalent [5] | CLSO, % lesions (corneal lesions) [6]
1 | > 20 mM | > 20 mM | > 20 mM | > 20 mM | C/C=C/C[C@@H](C)[C@@H](OC(=O)CN(C)C(=O)[C@H](COP(=O)(O)O)NC(=O)OC(C)OC(C)=O)[C@H]1C(=O)N[C@@H](CC)C(=O)N(C)CC(=O)N(C)[C@@H](CC(C)C)C(=O)N[C@@H](C(C)C)C(=O)N(C)[C@@H](CC(C)C)C(=O)N[C@@H](C)C(=O)N[C@H](C)C(=O)N(C)[C@@H](CC(C)C)C(=O)N(C)[C@@H](CC(C)C)C(=O)N(C)[C@@H](C(C)C)C(=O)N1C (stereo partly shown) [(XVI), MeBmt(O-Sar-Ser(OPO(OH)2)—COOCH(CH3)OCOCH3)^1-CsA] | 210 min | 44700 ng·h/mL | 14.9 h | 3.67 mL/min/kg | 12 min | 708 min | rapidly degrades to release the Cyclosporin A | – | –
2 | – | – | – | – | C/C=C/C[C@@H](C)[C@@H](OC(=O)CN(C)C(=O)[C@H](CCCC[N+](C)(C)C)NC(=O)OC(C)OC(C)=O)[C@H]1C(=O)N[C@@H](CC)C(=O)N(C)CC(=O)N(C)[C@@H](CC(C)C)C(=O)N[C@@H](C(C)C)C(=O)N(C)[C@@H](CC(C)C)C(=O)N[C@@H](C)C(=O)N[C@H](C)C(=O)N(C)[C@@H](CC(C)C)C(=O)N(C)[C@@H](CC(C)C)C(=O)N(C)[C@@H](C(C)C)C(=O)N1C (stereo partly shown) [(XV), MeBmt(O-Sar-Lys(Nε^+Me3)-COOCH(CH3)OCOCH3))^1-CsA.I^−] | 220 min | 66600 ng·h/mL | 15.3 h | 2.5 mL/min/kg | 33 min | 708 min | – | 3% | 7%
